Legend:
Assay type in all cases: in vivo, humans
[1] = system: moderate to severe plaque psoriasis; assay: Phase II placebo-controlled clinical study, Lattice System Global Psoriasis Score (LS-GPS); conditions: for Improvement by 2 categories, number of patients / Improvement by 2 categories, percentage of patients / Improvement to clear/almost clear, number of patients / Improvement to clear/almost clear, percentage of patients / Improvement to clear/almost clear/mild, number of patients / Improvement to clear/almost clear/mild, percentage of patients: LS-GPS, 18 weeks
Excerpt: The Lattice System Global Psoriasis Score (LS-GPS) developed by Charles Ellis, M. D. is a physician's global assessment tool that provides an entire body assessment that combines total body surface area (BSA) involvement with average plaque qualities. The resulting LS-GPS is one of eight discrete values ranging from “Clear” to “Very Severe”.
According to the LS-GPS score the definitions are: Clear • 0% Body Surface Area (BSA) and no elevation, erythema or scale. Almost Clear: • 1-3% BSA, mild elevation, erythema or scale; or • 4-9% BSA, mild erythema or mild scale Mild: • 1-3% BSA, moderate or marked elevation, erythema or scale; or • 4-9% BSA, mild elevation or moderate erythema or moderate scale; or • 10-20% BSA, mild erythema or mild/moderate scale Mild to Moderate: • 4-9% BSA, moderate elevation or marked scale; or • 10-20% BSA, moderate erythema; or • 21-29% BSA, mild erythema or mild/moderate scale Moderate: • 4-9% BSA, marked elevation or marked erythema; or • 10-20% BSA, mild elevation; or • 30-50% BSA, mild erythema or mild scale Moderate to Severe: • 10-20% BSA, moderate elevation or marked scale; or • 21-29% mild elevation or moderate erythema; or • 51+% BSA, mild erythema or mild scale Severe: • 10-20% BSA, marked elevation or marked erythema; or • 21-29% BSA, moderate/marked elevation or marked erythema or marked scale; or • 30-50% BSA, mild elevation or moderate erythema or moderate scale Very Severe: • 30-50% BSA, moderate/marked elevation or marked erythema or marked scale; or • 51+% BSA, any elevation or moderate/marked erythema or moderate/marked scale.
(§1) A phase II, multi-center, randomized, double-blind, placebo-controlled study involving 186 subjects compared the safety and efficacy of three doses (2 mg, 4 mg, and 8 mg) of rosiglitazone maleate (RSG) to placebo for eighteen weeks with two weeks follow-up in the treatment of moderate to severe plaque psoriasis. This study was designed to provide an assessment of the risk to benefit profile of three dose levels of RSG in subjects with psoriasis. 186 patients were enrolled and 108 patients completed the study. All patients were in the moderate to very severe category, although of the patients starting the study only 11 were moderate and the rest were severe or very severe.
(§2) Efficacy measurements included the Lattice System Global Psoriasis Score (LS-GPS) and the Psoriasis Area and Severity Index (PASI).
“Observed” refers to data on patients who completed the trial. “LOCF” (last observation carried forward) includes data on patients who withdrew from the trial for some reason and includes their last observation in the data. The percentage is out of the total number of initial participants in the trial.

[2] = system: moderate to severe plaque psoriasis; assay: Phase II placebo-controlled clinical study, Psoriasis Area and Severity Index (PASI)
Procedure: The Psoriasis Area Severity Index (PASI) score was developed by Fredeniksson and Petersson in 1978 ( Frederiksson T and Petersson U. Severe psoriasis-oral therapy with a new retinoid. Dermatologica. 1978;157:238-44). According to our preferred method of determining the PASI score,four main body areas are assessed: the head (h), the upper extremities (u) the trunk (t), and lower extremities (l) corresponding to 10; 20, 30 and 40% of the total body surface area, respectively. The buttocks are counted as part of the legs, the axilla and groin count as part of the trunk and the neck as part of the head. The area of psoriatic involvement of these four main areas (Ah, At, Au, Al) is given a numeric score for the percent involved by psoriasis: 1=1-9%; 2=10-29%; 3=30-49%; 4=50-69%; 5=70-89% and 6=90-100%. In order to evaluate the severity of the psoriatic lesions three target symptoms, erythema (E), thickness/indurabon (I), and desquamation/scaling (D) will be assessed according to a scale of 0-4, where 4 represents the severest possible involvement. In the case of i.e., erythema, 0=No symptoms; 1=slight erythema, 2=moderate erythema; 3=marked erythema, and 4=very marked erythema. The PASI score (0-72) is then calculated, from the following formula: […]
The PASI score varies in steps of 0.1 units from 0.0 to 72.0. Higher PASI scores indicate higher degrees of severity. The last mentioned score represents complete erythema of the severest possible degree, while 0.0 means no psoriatic lesions at all. Generally severe psoriasis is defined by a PASI score of 20 or more.
as §1, §2

subjects with psoriasis = assay: Phase II placebo-controlled clinical study, safety
Procedure: as §1

[3] = system: moderate to severe plaque psoriasis; assay: Phase II placebo-controlled clinical study, overall efficacy, onset of effect and patient photographs
Procedure: FIGS. 3, 4, 5 and 6: photographs of the back of a patient receiving 2 mg rosiglitazone at baseline and after 12 weeks, 18 weeks and follow-up (week 20).
FIGS. 7, 8 and 9: photographs of the lower leg of a patient receiving 8 mg rosiglitazone at baseline and after 12 weeks and 18 weeks.
as §1, §2

[4] = Observed (completers), 2 mg oral daily
[5] = Observed (completers), 4 mg oral daily
[6] = Observed (completers), 8 mg oral daily
[7] = Week 12, 2 mg and 8 mg groups compared to placebo
[8] = 18 weeks of oral, daily treatment, 2, 4, 8 mg

SMILES: CN(CCOc1ccc(CC2SC(=O)NC2=O)cc1)c1ccccn1 (stereo not drawn) [RSG, 5-[4-[2-(N-methyl-N-(2-pyridyl)amino)ethoxy]benzyl]thiazolidine-2,4-dione]
- LS-GPS results (FIG. 1, percentage of completed patients clear, almost clear or mild) ([1]; 8 mg group at 18 weeks): particularly good
- Improvement by 2 categories, number of patients ([1]; LOCF, 2 mg oral daily): 12
- Improvement by 2 categories, percentage of patients ([1]; LOCF, 2 mg oral daily): 24%
- Improvement to clear/almost clear, number of patients ([1]; LOCF, 2 mg oral daily): 2
- Improvement to clear/almost clear, percentage of patients ([1]; LOCF, 2 mg oral daily): 4%
- Improvement to clear/almost clear/mild, number of patients ([1]; LOCF, 2 mg oral daily): 5
- Improvement to clear/almost clear/mild, percentage of patients ([1]; LOCF, 2 mg oral daily): 10%
- Improvement by 2 categories, number of patients ([1]; LOCF, 4 mg oral daily): 6
- Improvement by 2 categories, percentage of patients ([1]; LOCF, 4 mg oral daily): 14%
- Improvement to clear/almost clear, number of patients ([1]; LOCF, 4 mg oral daily): 1
- Improvement to clear/almost clear, percentage of patients ([1]; LOCF, 4 mg oral daily): 2%
- Improvement to clear/almost clear/mild, number of patients ([1]; LOCF, 4 mg oral daily): 4
- Improvement to clear/almost clear/mild, percentage of patients ([1]; LOCF, 4 mg oral daily): 9%
- Improvement by 2 categories, number of patients ([1]; LOCF, 8 mg oral daily): 11
- Improvement by 2 categories, percentage of patients ([1]; LOCF, 8 mg oral daily): 25%
- Improvement to clear/almost clear, number of patients ([1]; LOCF, 8 mg oral daily): 3
- Improvement to clear/almost clear, percentage of patients ([1]; LOCF, 8 mg oral daily): 7%
- Improvement to clear/almost clear/mild, number of patients ([1]; LOCF, 8 mg oral daily): 11
- Improvement to clear/almost clear/mild, percentage of patients ([1]; LOCF, 8 mg oral daily): 25%
- Improvement by 2 categories, number of patients [1, 4]: 11
- Improvement by 2 categories, percentage of patients [1, 4]: 28%
- Improvement to clear/almost clear, number of patients [1, 4]: 2
- Improvement to clear/almost clear, percentage of patients [1, 4]: 5%
- Improvement to clear/almost clear/mild, number of patients [1, 4]: 5
- Improvement to clear/almost clear/mild, percentage of patients [1, 4]: 13%
- Improvement by 2 categories, number of patients [1, 5]: 4
- Improvement by 2 categories, percentage of patients [1, 5]: 20%
- Improvement to clear/almost clear, number of patients [1, 5]: 1
- Improvement to clear/almost clear, percentage of patients [1, 5]: 5%
- Improvement to clear/almost clear/mild, number of patients [1, 5]: 2
- Improvement to clear/almost clear/mild, percentage of patients [1, 5]: 10%
- Improvement by 2 categories, number of patients [1, 6]: 10
- Improvement by 2 categories, percentage of patients [1, 6]: 37%
- Improvement to clear/almost clear, number of patients [1, 6]: 3
- Improvement to clear/almost clear, percentage of patients [1, 6]: 11%
- Improvement to clear/almost clear/mild, number of patients [1, 6]: 10
- Improvement to clear/almost clear/mild, percentage of patients [1, 6]: 37%
- LS-GPS summary [1, 7]: improvements
- subjects who achieved Clear/Almost Clear in the LS-GPS (primary endpoint) ([1]; Week 12, in each of the RSG groups (2 mg, 4 mg, 8 mg), none in placebo): one
- distribution of the LS-GPS ([1]; Week 18, 2 mg group): statistically significant
- other LS-GPS endpoints ([1]; Week 18, 8 mg dose): comparable efficacy with the 2 mg dose
- odds for successful treatment (Clear/Almost Clear/Mild LS-GPS) relative to placebo group ([1]; Week 18, 8 mg group): ~5 times
- proportion of subjects who achieved Clear/Almost Clear/Mild, significance ([1]; Week 18, 8 mg group vs placebo): achieved statistical significance
- subjects who achieved an improvement of Clear/Almost Clear ([1]; Week 18, all RSG groups together, none on placebo): six
- PASI results (FIG. 2, change from baseline, LOCF) ([2]; 2 and 8 mg group at 12 weeks): particularly good
- mean percent change in PASI ([2]; Week 12, 2 mg and 8 mg group): statistically significant
- proportion of subjects who achieved a 50% improvement according the PASI [2, 7]: improvements
- proportion of subjects who achieved a 75% improvement according the PASI [2, 7]: improvements
- PASI mean percent change ([2]; Week 18, 2 mg group): statistically significant
- other PASI endpoints ([2]; Week 18, 8 mg dose): comparable efficacy with the 2 mg dose
- improvements in mean percent change in PASI total scores during follow-up period ([2]; two weeks follow-up after 18 weeks of treatment, all treatment groups): maintained
- safety findings (subjects with psoriasis; [8]): no unexpected safety findings
- safety profile (subjects with psoriasis; [8]): comparable across treatment groups
- adverse events (subjects with psoriasis; all doses): comparable with placebo
- tolerability (subjects with psoriasis; all doses): well tolerated
- efficacy results versus placebo ([3]; 4 mg group, high dropout rate (24/44)): did not separate appreciably from placebo
- clinical effects ([3]; Week 12 and Week 18, 2 mg and 8 mg treatment groups): Clinically meaningful effects
- efficacy in photographs of a patient's back (FIGS. 3-6) ([3]; one patient on 2 mg, baseline, 12 weeks, 18 weeks, follow-up week 20): good efficacy
- efficacy in photographs of a patient's lower leg (FIGS. 7-9) ([3]; one patient on 8 mg, baseline, 12 weeks, 18 weeks): good efficacy
- onset of action according to most measures ([3]; oral, 2 to 8 mg/day): around 2 weeks
- onset of activity ([3]; oral, 2 to 8 mg/day): 6-8 weeks
- time to noticeably beneficial effects ([3]; oral, 2 to 8 mg/day): 12-18 weeks
- time of peak effect (other endpoints) ([3]; study only 18 weeks, peak efficacy may not have been observed): 18 weeks

— patent publication US20070086967A1, “Treatment of psoriasis with rosiglitazone” (priority 2003, published 2007)
